The results in this text go back to ChEMBL document CHEMBL6121014, “Novel α-mangostin derivatives as promising antiviral agents: Isolation, synthesis, and evaluation against chikungunya virus” (Eur J Med Chem, 2025).

Some results are limits rather than exact numbers.

Series [1] has as its system Chikungunya virus. Description: Antiviral activity against CHIKV infected in green monkey Vero cells assessed as reduction in viral titer pretreated the cells with viral infection for 1 hr followed by compound addition and measured after 24 hrs by Foci forming unit assay. It counts as functional, organism-based.
The test system of series [2] is Chikungunya virus. The experiment in a line: Antiviral activity against CHIKV infected in green monkey Vero cells assessed as reduction in viral titer at 12.5 to 25 uM pretreated the cells with viral infection for 1 hr followed by compound addition and measured after 24 hrs by Foci forming unit assay (reference value: 8.55 log10FFU/ml). The series is classed as functional. Conditions: dose 12.5-25 µM.

Series [3] has as its system Chikungunya virus. The experiment in a line: Antiviral activity against CHIKV infected in green monkey Vero cells assessed as reduction in viral titer pretreated with compound for 24 hrs followed by viral infection by Foci forming unit assay. It counts as functional, organism-based.
For series [4], the system named is Chikungunya virus. Description: Antiviral activity against CHIKV infected in green monkey Vero cells assessed as reduction in viral titer at 25 uM pretreated with compound for 24 hrs followed by viral infection by foci forming unit assay (reference value: 8.48 log10FFU/ml). The series is classed as functional.
Series [5] concerns Chikungunya virus. The experiment in a line: Antiviral activity against CHIKV infected in green monkey Vero cells assessed as reduction in viral titer at 50 uM pretreated with compound for 24 hrs followed by viral infection by foci forming unit assay (reference value: 8.48 log10FFU/ml). It counts as functional.
Series [6] is described as follows: (§1) Cytotoxicity against green monkey Vero cells assessed as reduction in cell viability at 24 to 48 hrs by MTT assay. The following applies: chlorocebus sabaeus, Vero cells; time 24-48 hrs. On the set-up: Activity: concentration or dose not given beside the values. The series is classed as toxicity, cell-based. A general note: Tetrazolium dyes change colour on reduction, which living cells bring about.

In series [7] the test system is Vero. Described as §1. It counts as toxicity, cell-based. Details: Activity: concentration or dose not given beside the values. Conditions: chlorocebus sabaeus, vero; time 24-48 hrs.
Series [8] in a line: Selectivity ratio of IC50 for antiviral activity against CHIKV infected in green monkey Vero cells assessed as reduction in viral titer pretreated the cells with viral infection for 1 hr followed by compound addition and measured after 24 hrs by Foci forming unit assay to CC50 for cytotoxicity against green monkey Vero cells. It counts as toxicity, cell-based.
Series [9] has as its system Chikungunya virus. The experiment in a line: Antiviral activity against CHIKV infected in green monkey Vero cells assessed as reduction in viral titer at 25 uM pretreated the cells with viral infection for 1 hr followed by compound addition and measured after 24 hrs by Foci forming unit assay (reference value: 8.55 log10FFU/ml). It counts as functional.
The subject of series [10] is Chikungunya virus. Description: Antiviral activity against CHIKV infected in green monkey Vero cells assessed as reduction in viral titer at 1.56 uM pretreated the cells with viral infection for 1 hr followed by compound addition and measured after 24 hrs by Foci forming unit assay (reference value: 8.55 log10FFU/ml). The series is classed as functional.
The test system of series [11] is Chikungunya virus. The experiment in a line: Antiviral activity against CHIKV infected in green monkey Vero cells assessed as reduction in viral titer at 3.125 uM pretreated the cells with viral infection for 1 hr followed by compound addition and measured after 24 hrs by Foci forming unit assay (reference value: 8.55 log10FFU/ml). It counts as functional.

As a reminder, the IC50 is the concentration needed to halve the response being measured. As a reminder, the CC50 is the concentration at which the toxic effect on the cells reaches its halfway point. Turning to `COc1c(OCC(=O)N2CCN(S(=O)(=O)c3ccc(C(F)(F)F)cc3)CC2)cc2oc3cc4c(c(O)c3c(=O)c2c1CC=C(C)C)C=CC(C)(C)O4`, the half-maximal inhibitory concentration (IC50) in series [1] stood at 6.41 µM; in series [3], 6.96 µM. The Activity is on record as 7.4 log10FFU/ml in series [2], around 7.29 log10FFU/ml in [4], around 7.29 log10FFU/ml in [5] and above 90% in series [7]. For the same compound, the CC50 in [6] was 160 µM. In addition, the selectivity ratio at 24 h in [8] was 25.
Take `COc1c(OCC(=O)N2CCN(S(=O)(=O)c3ccc(Cl)cc3)CC2)cc2oc3cc4c(c(O)c3c(=O)c2c1CC=C(C)C)C=CC(C)(C)O4`: the half-inhibitory concentration (IC50) in series [1] was found to be 11.2 µM. The Activity in series [9] was 7.39 log10FFU/ml; in series [7] it was above 90%. For the same compound, the CC50 in series [6] is 160 µM. Besides, the selectivity ratio at 24 h in [8] stood at 14.3.
Turning to `COc1c(O)cc2oc3cc4c(c(O)c3c(=O)c2c1CC=C(C)C)C=CC(C)(C)O4` [MANGOSTANIN], in series [1], the IC50 came to 1.02 µM. Also, the Activity is 7.47 log10FFU/ml in series [10], 6.42 log10FFU/ml in series [11] and above 90% in series [7]. Moreover, the CC50 in [6] was found to be 6.68 µM. The selectivity ratio at 24 h in [8] was 5.55.
